According to patent US20240368214A1, “POSITIVE NMDA-MODULATING COMPOUNDS AND METHODS OF USE THEREOF” (SAGE THERAPEUTICS, INC., priority 2021, published 2024):
Like-named read-outs stand apart in the source and are kept apart here.

Target: T1, recombinant human GluN1/GluN2A receptor (Homo sapiens, UniProt Q05586+Q12879)
T1 construct: expressed in transfected cells; host or cells: HEK293, tetracycline-inducible expression
Assay: Whole-cell patch clamp of mammalian cells (Syncropatch 384i), NMDA modulation
Format: cell-based
Conditions: HEK293 cells, human GluN1/GluN2A, glutamate 1 μM / glycine 100 μM, -80 mV, peak amplitude increase; for EC50: read-out: EC50
Description: Whole-Cell Patch Clamp of Mammalian Cells (Syncropatch 384i (Nanion Technologies))
Whole-cell patch clamp electrophysiology was used to investigate the effects of compounds on GluN1/GluN2A N-methyl-D-aspartate (NMDA) glutamate receptors expressed in mammalian cells.
Human embryonic kidney (HEK293) cells expressing the recombinant human GluN1/GluN2A receptor under the control of a tetracycline-inducible expression system were used. Cells were maintained in Dulbecco's Modified Eagle's Medium (DMEM) with 1% glutamine, 10% Tetracycline System Approved fetal bovine serum (FBS), and NMDA inhibitors. Cells were cultured in a humidified 5% CO2 incubator at 37° C. Cells were induced with 50 ng/ml tetracycline 18-24 hours prior to testing. A cocktail of channel blockers was added to the media to prevent cell death.
Cells were 60-80% confluent at the time of harvest. Cells were detached from the flask TrypLE Enzyme Express (Thermo Fisher) at 37° C., and then cold extracellular solution was added to the flask, followed by incubation at 4° C. and then trituration of the cells. The cell solution was then placed on a shaker on the Syncropatch platform at 10° C. with a shake speed of a minimum 200 rpm for at least 30 minutes prior to testing.
Extracellular (EC) solution (in mM) —140 NaCl, 4 KCl, 5 CaCl2, 10 HEPES, 5 Glucose, pH 7.4 with NaOH. All external solutions contained 0.2% DMSO and 0.01% Kolliphor® EL (C5135, Sigma) throughout the experiment.
Intracellular (IC) solution (in mM) —120 CsF, 10 mM EGTA, 10 NaCl, 10 HEPES, 4 NaATP, 2 MgCl2, pH 7.2 with CsOH.
First, the DMSO Master Plate was prepared, in which the DMSO stock of each test compound was serially diluted in 100% DMSO to 1000× the final assay concentration. Immediately prior to assay testing, the compounds were diluted 1:100 by transferring solutions from the DMSO Mast Plate to the Intermediate Plate pre-filled with EC solution using a Biomek FX automated liquid handling system. Compounds were then diluted further with extracellular solution into two pre-incubation plates—1) compound from the Intermediate Plate was mixed with EC solution at a 1:5 dilution to create a 2× Compound Pre-Incubation Plate which was diluted a further 1:2 when added to the Syncropatch for the initial compound pre-incubation. And 2) compound from the Intermediate plate was mixed with EC solution at a 1:10 Dilution to create the 1× Compound Pre-Incubation Plate, which was used for subsequent compound pre-incubations. Finally, a Compound+Agonist Plate was prepared by mixing compound from the 2× Compound Pre-Incubation Plate with 2× concentration of co-agonists in a 1:1 ratio.
Each experiment sequentially included cell catching, sealing, whole-cell formation, liquid application, recording and data acquisition. Whole-cell patch clamp recordings were performed using multi-hole high resistance chips on the SyncroPatch 384i (Nanion Technologies). A steady-state voltage pulse at -80 mV was applied throughout the assay and a 10 second recording window was triggered around 1 second prior to application of co-agonists. Currents were leak corrected and sampled at 5 kHz.
A fast application was used, in which 5 μl co-agonist was rapidly applied at a speed of 30 μl/s and then rapidly removed from the well. To test for modulator activity, the co-agonists glutamate (1 μM) and glycine (100 μM) were applied three times to show activation reproducibility, followed by 120 seconds pre-incubation of test compound alone. The test compound was then re-applied in the presence of co-agonists two times. This was followed by application of the agonist alone, although test compound may not be fully washed from the well prior to this step. Finally, a saturating concentration of co-agonists (glutamate 100 μM/glycine 100 μM) was applied.
The voltage protocol generation data collection and analysis were performed on PatchControll384 and DataControll384. […]

T1 sequence (Q12879 23-1464, other chains not shown): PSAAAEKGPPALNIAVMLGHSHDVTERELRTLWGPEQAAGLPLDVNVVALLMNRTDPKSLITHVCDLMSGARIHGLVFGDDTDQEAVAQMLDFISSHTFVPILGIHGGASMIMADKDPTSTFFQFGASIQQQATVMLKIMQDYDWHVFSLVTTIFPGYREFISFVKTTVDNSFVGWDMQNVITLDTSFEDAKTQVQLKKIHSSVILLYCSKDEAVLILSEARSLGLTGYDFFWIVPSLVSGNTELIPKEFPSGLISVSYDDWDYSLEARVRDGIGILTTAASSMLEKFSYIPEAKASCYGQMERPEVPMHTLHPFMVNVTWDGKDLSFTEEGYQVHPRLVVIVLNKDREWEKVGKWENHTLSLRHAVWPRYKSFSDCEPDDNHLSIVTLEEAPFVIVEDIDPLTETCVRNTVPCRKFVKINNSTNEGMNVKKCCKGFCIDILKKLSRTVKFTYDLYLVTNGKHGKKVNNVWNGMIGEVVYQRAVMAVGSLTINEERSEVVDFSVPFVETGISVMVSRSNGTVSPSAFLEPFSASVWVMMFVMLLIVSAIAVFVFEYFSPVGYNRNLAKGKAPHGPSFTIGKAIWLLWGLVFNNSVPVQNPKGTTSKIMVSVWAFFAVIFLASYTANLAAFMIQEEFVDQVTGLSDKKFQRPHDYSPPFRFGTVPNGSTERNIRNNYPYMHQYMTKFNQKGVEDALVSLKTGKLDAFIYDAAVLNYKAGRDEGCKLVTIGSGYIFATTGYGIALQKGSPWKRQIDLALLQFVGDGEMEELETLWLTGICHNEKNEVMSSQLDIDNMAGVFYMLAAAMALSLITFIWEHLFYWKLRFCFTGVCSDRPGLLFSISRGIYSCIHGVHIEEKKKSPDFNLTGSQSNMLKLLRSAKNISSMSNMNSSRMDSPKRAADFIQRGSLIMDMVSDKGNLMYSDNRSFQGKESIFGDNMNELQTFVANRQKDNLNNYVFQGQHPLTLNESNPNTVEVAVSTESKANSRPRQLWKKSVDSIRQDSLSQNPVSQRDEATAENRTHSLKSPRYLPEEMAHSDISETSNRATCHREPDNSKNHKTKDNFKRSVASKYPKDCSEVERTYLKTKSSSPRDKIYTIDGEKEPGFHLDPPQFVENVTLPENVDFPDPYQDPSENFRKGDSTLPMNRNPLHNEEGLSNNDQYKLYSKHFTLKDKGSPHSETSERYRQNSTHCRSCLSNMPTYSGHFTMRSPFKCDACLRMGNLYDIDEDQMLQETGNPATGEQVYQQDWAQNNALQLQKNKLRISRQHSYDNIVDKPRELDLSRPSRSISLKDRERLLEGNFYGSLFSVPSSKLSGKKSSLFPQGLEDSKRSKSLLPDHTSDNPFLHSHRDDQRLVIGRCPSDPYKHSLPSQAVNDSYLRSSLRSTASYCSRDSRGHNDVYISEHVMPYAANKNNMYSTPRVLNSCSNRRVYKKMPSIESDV

In the case of `CC[C@]1(O)CC[C@@]2(C)[C@@H](CC[C@H]3[C@@H]4[C@H](C)C[C@H]([C@H](C)CCCC(C)(C)O)[C@@]4(C)CC[C@@H]32)C1` [Compound B-18, (3S,5S,8R,9S,10S,13R,14S,15R,17R)-3-ethyl-17-((R)-6-hydroxy-6-methylheptan-2-yl)-10,13,15-trimethylhexadecahydro-1H-cyclopenta[a]phenanthren-3-ol], the Emax (Table B-2) is reported as 100 to 200% and the EC50 (Table B-2) is reported as 1 to 100 nM.

For `CC[C@]1(O)CC[C@@]2(CC)[C@@H](CC[C@H]3[C@@H]4CC[C@H]([C@H](C)CCCC(C)(C)O)[C@@]4(C)CC[C@@H]32)C1` [Compound G-3, (3S,5S,8S,9S,10S,13R,14S,17R)-3,10-diethyl-17-((R)-6-hydroxy-6-methylheptan-2-yl)-13-methylhexadecahydro-1H-cyclopenta[a]phenanthren-3-ol], the Emax (Table G-2) was 100 to 200% and the EC50 (Table G-2) was 1 to 100 nM.

`C[C@H](CCCO)[C@H]1CC[C@H]2[C@@H]3CC[C@H]4C[C@@](C)(O)CC[C@]4(C)C3=CC[C@]12C` [Compound E-10, (3S,5S,8S,10S,13R,14S,17R)-17-((R)-5-hydroxypentan-2-yl)-3,10,13-trimethyl-2,3,4,5,6,7,8,10,12,13,14,15,16,17-tetradecahydro-1H-cyclopenta[a]phenanthren-3-ol] was tested, and the Emax (Table E-2) was < 100% and the EC50 (Table E-2) was 1 to 100 nM.

For `CC[C@]1(O)CC[C@@]2(C)[C@@H](CC[C@@H]3[C@@H]2CC[C@@]2(C)[C@H]3C[C@H]3C[C@]32[C@H](C)CC[C@@](C)(O)C(F)(F)F)C1` [Compound B-11, (2aS,4S,6aS,6bS,8aS,8bS,9aS,10aS,10bR)-4-ethyl-6a,8a-dimethyl-8b-((2R,5R)-6,6,6-trifluoro-5-hydroxy-5-methylhexan-2-yl)octadecahydrocyclopropa[3,4]cyclopenta[1,2-a]phenanthren-4-ol], the Emax (Table B-2) was 100 to 200% and the EC50 (Table B-2) was 1 to 100 nM.

In the case of `CC[C@]1(O)CC[C@@]2(C)C(=CC[C@H]3[C@@H]4CC[C@H]([C@@H](CCCC(C)(C)O)OC)[C@@]4(C)CC[C@@H]32)C1` [Compound A-12, (3S,8S,9S,10R,13S,14S,17S)-3-ethyl-17-((R)-5-hydroxy-1-methoxy-5-methylhexyl)-10,13-dimethyl-2,3,4,7,8,9,10,11,12,13,14,15,16,17-tetradecahydro-1H-cyclopenta[a]phenanthren-3-ol], the Emax (Table A-2) is reported as 100 to 200% and the EC50 (Table A-2) is reported as 1 to 100 nM.

With `CC[C@]1(O)CC[C@@]2(C)C(=CC[C@H]3[C@@H]4CC[C@H]([C@H](C)CC[C@@H](O)C(C)C)[C@H]4CC[C@@H]32)C1` [Compound F-10, (3S,8S,9S,10R,13R,14R,17R)-3-ethyl-17-((2R,5R)-5-hydroxy-6-methylheptan-2-yl)-10-methyl-2,3,4,7,8,9,10,11,12,13,14,15,16,17-tetradecahydro-1H-cyclopenta[a]phenanthren-3-ol] the EC50 (Table F-2) was 100 to 500 nM.

With `CC[C@]1(O)CC[C@@]2(C)C(=CC[C@H]3[C@@H]4CC[C@H]([C@H](C)CC[C@H](O)C(C)C)[C@@]4(CC)CC[C@@H]32)C1` [Compound F-5, (3S,8S,9S,10R,13R,14S,17R)-3,13-diethyl-17-((2R,5S)-5-hydroxy-6-methylheptan-2-yl)-10-methyl-2,3,4,7,8,9,10,11,12,13,14,15,16,17-tetradecahydro-1H-cyclopenta[a]phenanthren-3-ol] the EC50 (Table F-2) was 100 to 500 nM.

With `CC[C@]1(O)CC[C@@]2(C)[C@@H](CC[C@H]3[C@@H]4[C@H]5C[C@H]5[C@H]([C@H](C)CCC(C)(C)O)[C@@]4(C)CC[C@@H]32)C1` [Compound B-6] the Emax (Table B-2) was > 200% and the EC50 (Table B-2) was 100 to 500 nM.

For `CC[C@]1(O)CC[C@]2(C)C3=CC[C@]4(C)[C@@H]([C@H](C)CC[C@@H](O)C5(C#N)CC5)CC[C@H]4[C@@H]3CC[C@H]2C1` [Compound C-27, 1-((1R,4R)-4-((3S,5S,8S,10S,13R,14S,17R)-3-ethyl-3-hydroxy-10,13-dimethyl-2,3,4,5,6,7,8,10,12,13,14,15,16,17-tetradecahydro-1H-cyclopenta[a]phenanthren-17-yl)-1-hydroxypentyl)cyclopropane-1-carbonitrile], the EC50 (Table C-2) was 1 to 100 nM and the EC50 (Table E-2) was 1 to 100 nM.

For `C[C@H](CC[C@](C)(O)C(F)(F)F)[C@H]1CC[C@H]2[C@@H]3CC=C4C[C@](C)(O)CCC[C@]4(C)[C@H]3CC[C@]12C` [Compound D-14, (1R,3aS,3bS,7R,10aR,10bS,12aR)-7,10a,12a-trimethyl-1-((2R,5S)-6,6,6-trifluoro-5-hydroxy-5-methylhexan-2-yl)-1,2,3,3a,3b,4,6,7,8,9,10,10a, 10b, 11,12,12a-hexadecahydrocyclohepta[a]cyclopenta[f]naphthalen-7-ol], the EC50 (Table D-2) was > 1000 nM.

`CC[C@]1(O)CC[C@@]2(C)C(=CC[C@H]3[C@@H]4CC[C@H]([C@H](C)CC[C@@H](O)C5(C#N)CCC5)[C@@]4(C)CC[C@@H]32)C1` [Compound C-19, 1-((1R,4R)-4-((3S,8S,9S,10R,13R,14S,17R)-3-ethyl-3-hydroxy-10,13-dimethyl-2,3,4,7,8,9,10,11,12,13,14,15,16,17-tetradecahydro-1H-cyclopenta[a]phenanthren-17-yl)-1-hydroxypentyl)cyclobutane-1-carbonitrile] showed an EC50 (Table C-2) of 1 to 100 nM.

With `CC[C@]1(O)CC[C@@]2(C)[C@@H](CC[C@@H]3[C@@H]2CC[C@]2(C)[C@@H](C(CC[C@@H](O)C(C)C)C(F)(F)F)CC[C@@H]32)C1` (stereo in doubt) [Compound A-19, (3S,5S,8R,9S,10S,13S,14S,17R)-3-ethyl-10,13-dimethyl-17-((2R,5R)-1,1,1-trifluoro-5-hydroxy-6-methylheptan-2-yl)hexadecahydro-1H-cyclopenta[a]phenanthren-3-ol] the EC50 (Table A-2) was > 1000 nM.

For `CC[C@]1(O)CC[C@@]2(C)[C@@H](CC[C@@H]3[C@@H]2CC[C@]2(C)[C@@H]([C@H](CCCC(C)(C)O)C(F)(F)F)CC[C@@H]32)C1` [Compound A-18, (3S,5S,8R,9S,10S,13S,14S,17R)-3-ethyl-10,13-dimethyl-17-((S)-1,1,1-trifluoro-6-hydroxy-6-methylheptan-2-yl)hexadecahydro-1H-cyclopenta[a]phenanthren-3-ol], the EC50 (Table A-2) was > 1000 nM.
